Source: US20250282794A1 (CURADEV PHARMA LTD, priority 2022, published 2025)

The molecules below were run against recombinant full length HPK-1 enzyme (Homo sapiens (Human), UniProt Q92918) (assay: HPK-1 biochemical enzyme assay (ADP-Glo kinase inhibition)). Conditions: recombinant full length HPK-1 6.8 nM, 10 μM ATP, 12.5 μM MBP, 30 mins at 25° C.
Summary of the method: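 Recombinant full-length human HPK-1 (6.8 nM) incubated 30 min at 25° C. with 10 μM ATP and 12.5 μM swine MBP in 40 mM Tris pH 7.4, 20 mM MgCl2, 50 μM DTT, 0.1 mg/mL BSA. ADP measured by ADP-Glo; IC50 from 10 concentrations, normalized to no-enzyme and vehicle controls.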

Chain of recombinant full length HPK-1 enzyme (Q92918 whole entry, species assumed): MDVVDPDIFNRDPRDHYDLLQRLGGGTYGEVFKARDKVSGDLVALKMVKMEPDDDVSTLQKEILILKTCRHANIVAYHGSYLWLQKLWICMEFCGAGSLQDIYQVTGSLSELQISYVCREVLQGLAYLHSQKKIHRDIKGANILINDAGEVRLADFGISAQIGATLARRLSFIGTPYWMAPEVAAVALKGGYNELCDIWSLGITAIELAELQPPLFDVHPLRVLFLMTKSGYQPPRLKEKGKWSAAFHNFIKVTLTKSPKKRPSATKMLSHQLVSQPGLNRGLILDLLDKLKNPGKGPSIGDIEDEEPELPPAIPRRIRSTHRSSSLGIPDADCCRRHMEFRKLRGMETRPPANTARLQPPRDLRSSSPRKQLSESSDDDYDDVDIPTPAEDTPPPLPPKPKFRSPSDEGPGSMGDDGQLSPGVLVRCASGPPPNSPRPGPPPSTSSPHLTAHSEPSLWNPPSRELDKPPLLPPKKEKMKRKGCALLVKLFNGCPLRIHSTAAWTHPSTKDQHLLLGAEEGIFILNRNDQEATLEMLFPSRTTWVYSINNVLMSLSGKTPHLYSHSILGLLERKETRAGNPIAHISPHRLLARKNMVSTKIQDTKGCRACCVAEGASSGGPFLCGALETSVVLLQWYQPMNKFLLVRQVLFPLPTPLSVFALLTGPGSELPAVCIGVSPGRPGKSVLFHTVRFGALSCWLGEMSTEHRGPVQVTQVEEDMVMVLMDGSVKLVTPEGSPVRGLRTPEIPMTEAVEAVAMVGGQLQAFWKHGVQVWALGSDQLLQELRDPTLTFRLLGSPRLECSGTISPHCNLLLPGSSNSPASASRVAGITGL

Compound | IC50 [nM]
Cc1c(Nc2cc[nH]c(=O)c2C(=O)Nc2ccc3nc[nH]c3c2)cnc2c1NCCO2 [Example 257, N-(1H-benzo[d]imidazol-6-yl)-4-((8-methyl-2,3-dihydro-1H-pyrido[2,3-b][1,4]oxazin-7-yl)amino)-2-oxo-1,2-dihydropyridine-3-carboxamide] | 10 to 100
Cc1c(Nc2cc[nH]c(=O)c2C(=O)Nc2ccc3c(c2)NC(=O)CC3)cnc2c1NCCO2 [Example 258, 4-((8-methyl-2,3-dihydro-1H-pyrido[2,3-b][1,4]oxazin-7-yl)amino)-2-oxo-N-(2-oxo-1,2,3,4-tetrahydroquinolin-7-yl)-1,2-dihydropyridine-3-carboxamide] | 10 to 100
Cc1c(Nc2cc[nH]c(=O)c2C(=O)Nc2ccc3c(c2)C(=O)NCC3)cnc2c1NCCO2 [Example 260, 4-((8-methyl-2,3-dihydro-1H-pyrido[2,3-b][1,4]oxazin-7-yl)amino)-2-oxo-N-(1-oxo-1,2,3,4-tetrahydroisoquinolin-7-yl)-1,2-dihydropyridine-3-carboxamide] | 100 to 1000
Cc1c(Nc2cc[nH]c(=O)c2C(=O)Nc2ccc(N3CCN(S(C)(=O)=O)CC3)cc2)cnc2c1NCCO2 [Example 262, 4-((8-methyl-2,3-dihydro-1H-pyrido[2,3-b][1,4]oxazin-7-yl)amino)-N-(4-(4-(methylsulfonyl)piperazin-1-yl)phenyl)-2-oxo-1,2-dihydropyridine-3-carboxamide] | 10 to 100
CCn1nccc1-c1ccc(NC(=O)c2c(Nc3cnc4c(c3C)NCCO4)cc[nH]c2=O)cc1 [Example 264, N-(4-(1-ethyl-1H-pyrazol-5-yl)phenyl)-4-((8-methyl-2,3-dihydro-1H-pyrido[2,3-b][1,4]oxazin-7-yl)amino)-2-oxo-1,2-dihydropyridine-3-carboxamide] | 10 to 100
CCn1nc(C(F)(F)F)cc1-c1ccc(NC(=O)c2c(Nc3cnc4c(c3C)NCCO4)cc[nH]c2=O)cc1 [Example 265, N-(4-(1-ethyl-3-(trifluoromethyl)-1H-pyrazol-5-yl)phenyl)-4-((8-methyl-2,3-dihydro-1H-pyrido[2,3-b][1,4]oxazin-7-yl)amino)-2-oxo-1,2-dihydropyridine-3-carboxamide] | 10 to 100
Cc1c(Nc2cc[nH]c(=O)c2C(=O)Nc2ccc(N3CCN(C)CC3=O)cc2)cnc2c1NCCO2 [Example 267, 4-((8-methyl-2,3-dihydro-1H-pyrido[2,3-b][1,4]oxazin-7-yl)amino)-N-(4-(4-methyl-2-oxopiperazin-1-yl)phenyl)-2-oxo-1,2-dihydropyridine-3-carboxamide] | 10 to 100
Cc1c(Nc2cc[nH]c(=O)c2C(=O)Nc2ccc(N3CCNC(=O)C3)cc2)cnc2c1NCCO2 [Example 268, 4-((8-methyl-2,3-dihydro-1H-pyrido[2,3-b][1,4]oxazin-7-yl)amino)-2-oxo-N-(4-(3-oxopiperazin-1-yl)phenyl)-1,2-dihydropyridine-3-carboxamide] | 10 to 100
Cc1c(Nc2cc[nH]c(=O)c2C(=O)Nc2ccc3c(c2)OCC(=O)N3)cnc2c1NCCO2 [Example 269, 4-((8-methyl-2,3-dihydro-1H-pyrido[2,3-b][1,4]oxazin-7-yl)amino)-2-oxo-N-(3-oxo-3,4-dihydro-2H-benzo[b][1,4]oxazin-7-yl)-1,2-dihydropyridine-3-carboxamide] | 10 to 100
Cc1c(Nc2cc[nH]c(=O)c2C(=O)Nc2ccc(-c3ccnn3C(C)C)cc2)cnc2c1NCCO2 [Example 271, N-(4-(1-isopropyl-1H-pyrazol-5-yl)phenyl)-4-((8-methyl-2,3-dihydro-1H-pyrido[2,3-b][1,4]oxazin-7-yl)amino)-2-oxo-1,2-dihydropyridine-3-carboxamide] | 10 to 100
Cc1c(Nc2cc[nH]c(=O)c2C(=O)Nc2ccc(N3CCN(C)C(=O)C3)cc2)cnc2c1NCCO2 [Example 272, 4-((8-methyl-2,3-dihydro-1H-pyrido[2,3-b][1,4]oxazin-7-yl)amino)-N-(4-(4-methyl-3-oxopiperazin-1-yl)phenyl)-2-oxo-1,2-dihydropyridine-3-carboxamide] | 10 to 100
Cc1c(Nc2cc[nH]c(=O)c2C(=O)Nc2ccc3ncc(O)nc3c2)cnc2c1NCCO2 [Example 273, N-(3-hydroxyquinoxalin-6-yl)-4-((8-methyl-2,3-dihydro-1H-pyrido[2,3-b][1,4]oxazin-7-yl)amino)-2-oxo-1,2-dihydropyridine-3-carboxamide] | 100 to 1000
Cc1c(Nc2cc[nH]c(=O)c2C(=O)Nc2ccc(N3CCC(C)CC3)cc2)cnc2c1NCCO2 [Example 280, 4-((8-methyl-2,3-dihydro-1H-pyrido[2,3-b][1,4]oxazin-7-yl)amino)-N-(4-(4-methylpiperidin-1-yl)phenyl)-2-oxo-1,2-dihydropyridine-3-carboxamide] | 10 to 100
CCCCC(CC)CNC(=O)c1ccc(NC(=O)c2c(Nc3cnc4c(c3C)NCCO4)cc[nH]c2=O)cc1 (stereo not drawn) [Example 281, N-(4-((2-ethylhexyl)carbamoyl)phenyl)-4-((8-methyl-2,3-dihydro-1H-pyrido[2,3-b][1,4]oxazin-7-yl)amino)-2-oxo-1,2-dihydropyridine-3-carboxamide] | 10 to 100
CNC(=O)N1CCN(c2ccc(NC(=O)c3c(Nc4cnc5c(c4C)NCCO5)cc[nH]c3=O)cc2)CC1 [Example 287, N-methyl-4-(4-(4-((8-methyl-2,3-dihydro-1H-pyrido[2,3-b][1,4]oxazin-7-yl)amino)-2-oxo-1,2-dihydropyridine-3-carboxamido)phenyl)piperazine-1-carboxamide] | 10 to 100

The next lines start with the values.

IC50 [nM] | Compound
≤ 10 | Cc1c(Nc2cc[nH]c(=O)c2C(=O)Nc2ccc(N3CCN(C4CCCC4)CC3)c(F)c2)cnc2c1NCCO2 [Example 259, N-(4-(4-cyclopentylpiperazin-1-yl)-3-fluorophenyl)-4-((8-methyl-2,3-dihydro-1H-pyrido[2,3-b][1,4]oxazin-7-yl)amino)-2-oxo-1,2-dihydropyridine-3-carboxamide]
≤ 10 | Cc1c(Nc2cc[nH]c(=O)c2C(=O)Nc2ccc(N3CCN(C)CC3)c(Cl)c2)cnc2c1NCCO2 [Example 261, N-(3-chloro-4-(4-methylpiperazin-1-yl)phenyl)-4-((8-methyl-2,3-dihydro-1H-pyrido[2,3-b][1,4]oxazin-7-yl)amino)-2-oxo-1,2-dihydropyridine-3-carboxamide]
≤ 10 | Cc1c(Nc2cc[nH]c(=O)c2C(=O)Nc2ccc(N3CCN(C)CC3)c(N)c2)cnc2c1NCCO2 [Example 263, N-(3-Amino-4-(4-methylpiperazin-1-yl)phenyl)-4-((8-methyl-2,3-dihydro-1H-pyrido[2,3-b][1,4]oxazin-7-yl)amino)-2-oxo-1,2-dihydropyridine-3-carboxamide]
≤ 10 | Cc1c(Nc2cc[nH]c(=O)c2C(=O)Nc2ccc(N3CCN(C)C[C@@H]3C)cc2)cnc2c1NCCO2 [Example 266, (S)-N-(4-(2,4-dimethylpiperazin-1-yl)phenyl)-4-((8-methyl-2,3-dihydro-1H-pyrido[2,3-b][1,4]oxazin-7-yl)amino)-2-oxo-1,2-dihydropyridine-3-carboxamide]
≤ 10 | Cc1c(Nc2cc[nH]c(=O)c2C(=O)Nc2ccc(N3CCN(C)CC3)c(Br)c2)cnc2c1NCCO2 [Example 270, N-(3-bromo-4-(4-methylpiperazin-1-yl)phenyl)-4-((8-methyl-2,3-dihydro-1H-pyrido[2,3-b][1,4]oxazin-7-yl)amino)-2-oxo-1,2-dihydropyridine-3-carboxamide]
≤ 10 | Cc1c(Nc2cc[nH]c(=O)c2C(=O)Nc2ccc(N3CCC(N4CCN(C)CC4)CC3)cc2)cnc2c1NCCO2 [Example 274, 4-((8-methyl-2,3-dihydro-1H-pyrido[2,3-b][1,4]oxazin-7-yl)amino)-N-(4-(4-(4-methylpiperazin-1-yl)piperidin-1-yl)phenyl)-2-oxo-1,2-dihydropyridine-3-carboxamide]
≤ 10 | COCCN1CCC(c2ccc(NC(=O)c3c(Nc4cnc5c(c4C)NCCO5)cc[nH]c3=O)cc2F)CC1 [Example 276, N-(3-fluoro-4-(1-(2-methoxyethyl)piperidin-4-yl)phenyl)-4-((8-methyl-2,3-dihydro-1H-pyrido[2,3-b][1,4]oxazin-7-yl)amino)-2-oxo-1,2-dihydropyridine-3-carboxamide]
≤ 10 | Cc1c(Nc2cc[nH]c(=O)c2C(=O)Nc2ccc(N3CCN(CC(C)(C)O)CC3)cc2)cnc2c1NCCO2 [Example 282, N-(4-(4-(2-hydroxy-2-methylpropyl)piperazin-1-yl)phenyl)-4-((8-methyl-2,3-dihydro-1H-pyrido[2,3-b][1,4]oxazin-7-yl)amino)-2-oxo-1,2-dihydropyridine-3-carboxamide]
≤ 10 | Cc1c(Nc2cc[nH]c(=O)c2C(=O)Nc2ccc(N3CCN(C(=O)C4CCCC4)CC3)cc2)cnc2c1NCCO2 [Example 283, N-(4-(4-(cyclopentanecarbonyl)piperazin-1-yl)phenyl)-4-((8-methyl-2,3-dihydro-1H-pyrido[2,3-b][1,4]oxazin-7-yl)amino)-2-oxo-1,2-dihydropyridine-3-carboxamide]
≤ 10 | COCC(=O)N1CCN(c2ccc(NC(=O)c3c(Nc4cnc5c(c4C)NCCO5)cc[nH]c3=O)cc2)CC1 [Example 284, N-(4-(4-(2-methoxyacetyl)piperazin-1-yl)phenyl)-4-((8-methyl-2,3-dihydro-1H-pyrido[2,3-b][1,4]oxazin-7-yl)amino)-2-oxo-1,2-dihydropyridine-3-carboxamide]
≤ 10 | COCCC(=O)N1CCN(c2ccc(NC(=O)c3c(Nc4cnc5c(c4C)NCCO5)cc[nH]c3=O)cc2)CC1 [Example 285, N-(4-(4-(3-methoxypropanoyl)piperazin-1-yl)phenyl)-4-((8-methyl-2,3-dihydro-1H-pyrido[2,3-b][1,4]oxazin-7-yl)amino)-2-oxo-1,2-dihydropyridine-3-carboxamide]
≤ 10 | Cc1c(Nc2cc[nH]c(=O)c2C(=O)Nc2ccc(N3CCN(c4cccnc4)CC3)cc2)cnc2c1NCCO2 [Example 286, 4-((8-methyl-2,3-dihydro-1H-pyrido[2,3-b][1,4]oxazin-7-yl)amino)-2-oxo-N-(4-(4-(pyridin-3-yl)piperazin-1-yl)phenyl)-1,2-dihydropyridine-3-carboxamide]
